Laboratory results as given in ChEMBL document CHEMBL6074649, “An insight into recent developments in imidazole based heterocyclic compounds as anticancer agents: Synthesis, SARs, and mechanism of actions” (Eur J Med Chem, 2024).
In brackets after ≈: the same amount, converted by molar mass.

Legend:
[1] = Anticancer activity against human UKF-NB-3 cells by MTT assay; format: functional, cell-based
NCI-H1299 = experiment: Anticancer activity against human NCI-H1299 cells by MTT assay; format: functional, cell-based
A549 [2] = experiment: Anticancer activity against human A549 cells by MTT assay; format: functional, cell-based
Leukemia cell = experiment: Growth inhibition of human Leukemia cell; format: functional
[3] = Antiproliferative activity against human HepG2 cells assessed as reduction in cell growth by MTT assay; format: toxicity, cell-based
MDA-MB-231 = experiment: Antiproliferative activity against human MDA-MB-231 cells assessed as reduction in cell growth by MTT assay; format: functional, cell-based
L02 = experiment: Antiproliferative activity against human LO2 cells assessed as reduction in cell growth by MTT assay; format: functional, cell-based
[4] = Antiproliferative activity against human MCF-10A cells assessed as reduction in cell growth by MTT assay; format: toxicity, cell-based
A549 [5] = experiment: Antiproliferative activity against human A549 cells assessed as reduction in cell viability incubated for 48 hrs by CCK-8 assay; format: functional, cell-based; conditions: A549, 48 h
U-251 = experiment: Antiproliferative activity against human U-251 cells assessed as reduction in cell viability incubated for 48 hrs by CCK-8 assay; format: functional, cell-based; conditions: U-251, 48 h
HepG2 [6] = experiment: Antiproliferative activity against human HepG2 cells assessed as reduction in cell viability incubated for 48 hrs by CCK-8 assay; format: functional, cell-based; conditions: HepG2, 48 h
K562 = experiment: Antiproliferative activity against human K562 cells assessed as reduction in cell growth incubated for 48 hrs by MTT assay; format: functional, cell-based; conditions: K562, 48 h
HeLa [7] = experiment: Antiproliferative activity against human HeLa cells assessed as reduction in cell growth incubated for 48 hrs by MTT assay; format: functional, cell-based
HepG2 [8] = experiment: Cytotoxicity against human HepG2 cells assessed as reduction in cell growth incubated for 24 hrs by SRB assay; format: functional, cell-based; conditions: HepG2, 24 h
MCF7 [9] = experiment: Cytotoxicity against human MCF7 cells assessed as reduction in cell growth incubated for 24 hrs by SRB assay; format: functional, cell-based; conditions: MCF7, 24 h
[10] = Antiproliferative activity against human MRC5 cells assessed as reduction in cell viability incubated for 24 hrs by MTT assay; format: toxicity, cell-based
AGS = experiment: Antiproliferative activity against human AGS cells assessed as reduction in cell viability incubated for 24 hrs by MTT assay; format: functional, cell-based
A549 [11] = experiment: Antiproliferative activity against human A549 cells assessed as reduction in cell viability incubated for 24 hrs by MTT assay; format: functional, cell-based; conditions: A549, 24 h
IMR-32 = experiment: Anticancer activity against human IMR-32 cells assessed as reduction in cell viability incubated for 48 hrs by MTT assay; format: functional, cell-based; conditions: IMR-32, 48 h
HeLa [12] = experiment: Anticancer activity against human HeLa cells assessed as reduction in cell viability incubated for 48 hrs by MTT assay; format: functional, cell-based
A549 [13] = experiment: Anticancer activity against human A549 cells assessed as reduction in cell viability incubated for 48 hrs by MTT assay; format: functional, cell-based; conditions: A549, 48 h
[14] = Anticancer activity against HEK293 cells assessed as reduction in cell viability incubated for 48 hrs by MTT assay; format: toxicity, cell-based; conditions: human
MCF7 [15] = experiment: Anticancer activity against human MCF7 cells at 500 uM relative to control; format: functional
MCF7 [16] = experiment: Anticancer activity against human MCF7 cells at 1.9 uM relative to control; format: functional
MCF7 [17] = experiment: Anticancer activity against human MCF7 cells at 15.6 uM relative to control; format: functional
MCF7 [18] = experiment: Anticancer activity against human MCF7 cells at 31.25 uM relative to control; format: functional
MCF7 [19] = experiment: Anticancer activity against human MCF7 cells at 62.5 uM relative to control; format: functional
MCF7 [20] = experiment: Anticancer activity against human MCF7 cells at 1.5 uM relative to control; format: functional
MCF7 [21] = experiment: Anticancer activity against human MCF7 cells at 7.8 uM relative to control; format: functional
MCF7 [22] = experiment: Anticancer activity against human MCF7 cells at 3.9 uM relative to control; format: functional
MCF7 [23] = experiment: Anticancer activity against human MCF7 cells at 125 uM relative to control; format: functional
[24] = Growth inhibition of human Non-small cell lung cancer cell line; format: functional
CNS carcinoma cell = experiment: Growth inhibition of human CNS carcinoma cell; format: functional
[25] = Growth inhibition of human Colon cancer cell line; format: functional
[26] = Growth inhibition of human Melanoma cell; format: functional
MCF7 [27] = experiment: Cytotoxicity against human MCF7 cells assessed as reduction in cell growth measured for 24 hrs by MTT assay; format: functional, cell-based; conditions: MCF7, 24 h
HepG2 [28] = experiment: Cytotoxicity against human HepG2 cells assessed as reduction in cell growth incubated for 24 hrs by MTT assay; format: functional, cell-based; conditions: HepG2, 24 h
Caco-2 = experiment: Cytotoxicity against human Caco-2 cells assessed as reduction in cell growth measured for 24 hrs by MTT assay; format: functional, cell-based; conditions: Caco-2, 24 h

SMILES: COc1ccc(C2=N[C@H](c3ccc(Cl)cc3)[C@H](c3ccc(Cl)cc3)N2C(=O)N2CCNC(=O)C2)c(OC(C)C)c1
- IC50 [1]: 5.2 µg/mL (≈ 8.94 µM)
- IC50 (NCI-H1299): > 100 µg/mL
- IC50 (A549 [2]): 11.1 µg/mL (≈ 19.1 µM)

SMILES: COc1ccc(Nn2c(SCC(=O)Nc3nc(-c4ccc(Cl)cc4)cs3)nc(C)c2C)cc1
- GI50 (Leukemia cell): 4.15 µM

SMILES: Cc1ccc(Nn2c(SCC(=O)Nc3nc(-c4ccccc4)cs3)nc(C)c2C)cc1
- GI50 (Leukemia cell): 3.91 µM

SMILES: Cc1nc(SCC(=O)Nc2nc(-c3ccc(Cl)cc3)cs2)n(Nc2ccccc2)c1C
- GI50 (Leukemia cell): 3.08 µM

SMILES: c1ccc(-c2nc(-c3c[nH]c4ccccc34)[nH]c2-c2ccccc2)cc1
- IC50 [3]: 29.3 µM
- IC50 (MDA-MB-231): 31.4 µM
- IC50 (L02): 34.7 µM
- IC50 [4]: 31.8 µM

SMILES: CN(C)c1ccc(/C=C/c2ncc([N+](=O)[O-])n2CCOC(=O)c2nccc3ccccc23)cc1
- IC50 (A549 [5]): 0.43 µM
- IC50 (U-251): 0.14 µM
- IC50 (HepG2 [6]): 0.17 µM

SMILES: O=C(OCCn1c([N+](=O)[O-])cnc1/C=C/c1ccc2ccccc2c1)c1nccc2ccccc12
- IC50 (A549 [5]): 0.32 µM
- IC50 (U-251): 0.1 µM
- IC50 (HepG2 [6]): 0.11 µM

SMILES: COc1cc([C@@H]2c3cc4c(cc3[C@@H](n3ccnc3)[C@H]3COC(=O)[C@H]23)OCO4)cc(OC)c1OC
- IC50 (K562): 2.88 µM
- IC50 (HeLa [7]): 5.22 µM

SMILES: COc1cc([C@@H]2c3cc4c(cc3[C@@H](n3cnc([N+](=O)[O-])c3)[C@H]3COC(=O)[C@H]23)OCO4)cc(OC)c1O
- IC50 (K562): 7.43 µM

SMILES: Cc1nc(S)n(-c2ccccc2)c1-c1cc(-c2ccccc2O)c(C#N)c(=O)[nH]1
- IC50 (HepG2 [8]): 3 µg/mL (≈ 7.49 µM)
- IC50 (MCF7 [9]): 2 µg/mL (≈ 4.99 µM)

SMILES: COc1ccc(C(=O)/C=C/c2nc3ccccc3n2C)cc1
- IC50 at 24 h [10]: 45.9 µM
- IC50 (AGS): 15.1 µM
- IC50 (A549 [11]): 68.1 µM

SMILES: O=[N+]([O-])c1ccccc1-c1nc(-c2ccc(Br)cc2)c(-c2ccc(Br)cc2)[nH]1
- IC50 (IMR-32): 10.3 µM
- IC50 (HeLa [12]): 13.6 µM
- IC50 (A549 [13]): 12.5 µM
- IC50 at 48 h [14]: 94.3 µM

SMILES: Cc1ccc(-c2nc(-c3ccccc3)c(-c3ccccc3)n2Cc2ccc(F)cc2)cc1
- inhibition at 500 µM (MCF7 [15]): 15%
- inhibition at 1.9 µM (MCF7 [16]): 87%
- inhibition at 15.6 µM (MCF7 [17]): 53%
- inhibition at 31.25 µM (MCF7 [18]): 47%
- inhibition at 62.5 µM (MCF7 [19]): 38%
- inhibition at 1.5 µM (MCF7 [20]): 90%
- inhibition at 7.8 µM (MCF7 [21]): 66%
- inhibition at 3.9 µM (MCF7 [22]): 72%
- inhibition at 125 µM (MCF7 [23]): 29%

SMILES: Oc1ccc(-n2cnc(-c3cc(O)cc(O)c3)c2)cc1
- GI50 [24]: 28.8 µM
- GI50 (CNS carcinoma cell): 11.5 µM
- GI50 [25]: 11.5 µM
- GI50 [26]: 12.9 µM
- GI50 (Leukemia cell): 4.1 µM

SMILES: Fc1ccc(Cn2c(-c3ccc(Br)cc3)nc(-c3ccccc3)c2-c2ccccc2)cc1
- inhibition at 500 µM (MCF7 [15]): 5%
- inhibition at 1.9 µM (MCF7 [16]): 75%
- inhibition at 15.6 µM (MCF7 [17]): 36%
- inhibition at 31.25 µM (MCF7 [18]): 30%
- inhibition at 62.5 µM (MCF7 [19]): 24%
- inhibition at 1.5 µM (MCF7 [20]): 84%
- inhibition at 7.8 µM (MCF7 [21]): 63%
- inhibition at 3.9 µM (MCF7 [22]): 69%
- inhibition at 125 µM (MCF7 [23]): 20%

SMILES: Brc1ccc(-c2nc(-c3ccccc3)c(-c3ccccc3)[nH]2)cn1
- IC50 [3]: 26.7 µM
- IC50 (MDA-MB-231): 17.8 µM
- IC50 (L02): 22 µM
- IC50 [4]: 36.8 µM

SMILES: c1ccc(-c2nc(-c3ccc(OCc4cc(COc5ccc(-c6nc(-c7ccccc7)c(-c7ccccc7)[nH]6)cc5)c(COc5ccc(-c6nc(-c7ccccc7)c(-c7ccccc7)[nH]6)cc5)cc4COc4ccc(-c5nc(-c6ccccc6)c(-c6ccccc6)[nH]5)cc4)cc3)[nH]c2-c2ccccc2)cc1
- IC50 (MCF7 [27]): 12.6 µM
- IC50 (HepG2 [28]): 19.1 µM
- IC50 (Caco-2): 34.8 µM
